What was measured:
[1] = tested on: Phorbol Ester-Induced Mouse Ear Swelling Model; assay: Phorbol ester-induced mouse ear swelling model; format: in vivo, SPF ICR mice; conditions: 6 h after modeling; for Right ear (ear thickness): phorbol ester 5 μg/20 μL/ear, drug 20 μL/ear 30 min before and 15 min after modeling, thickness gauge; for Swelling degree: right minus left ear thickness, drug 20 μL/ear in DMSO 30 min before and 15 min after modeling; for Inhibition rate of the swelling: vs. model group, ear thickness
Protocol: 1. Therapeutic Effects of the Compound Pharmaceutical Composition of the Disclosure on a Phorbol Ester-Induced Mouse Ear Swelling Model
SPF ICR mice, male, 18-22 g, randomly divided into compound groups with different compound ratios and a model group according to body weight, 10 mice for each group. The test drug is dissolved in a 20 μL solvent of DMSO. The specific group numbers are as follows:
(1) Compound groups with different compound ratios
Tofacitinib:crisaborole=2 mg:2 mg/20 μL (dose ratio=1:1; group a); tofacitinib:crisaborole=2 mg:1 mg/20 μL (dose ratio=2:1; group b); tofacitinib:crisaborole=2 mg:0.5 mg/20 μL (dose ratio=4:1; group c); tofacitinib:crisaborole=2 mg:0.25 mg/20 μL (dose ratio=8:1; group d); tofacitinib:crisaborole=2 mg:0.2 mg/20 μL (dose ratio=10:1; group e); tofacitinib:crisaborole=2 mg:0.125 mg/20 μL (dose ratio=16:1; group f); tofacitinib:crisaborole=1 mg: 2 mg/20 μL (dose ratio=1:2; group g); tofacitinib:crisaborole=0.5 mg:2 mg/20 μL (dose ratio=1:4; group h); tofacitinib:crisaborole=0.25 mg:2 mg/20 μL (dose ratio=1:8; group i); tofacitinib:crisaborole=0.2 mg:2 mg/20 μL (dose ratio=1:10; group j); tofacitinib:crisaborole=0.125 mg:2 mg/20 μL (dose ratio=1:16; group k). (2) Model Group (3) Crisaborole (4 mg/20 ul) (4) Tofacitinib (4 mg/20 ul) (5) Blank group: applying with 20 μL DMSO as a solvent for comparison. Experimental Method:
For the mice of each group, 20 ul (5 μg/20 μL/ear) of phorbol ester is applied to the front and back of the right ear for modeling, and 20 μL solvent medium (acetone) is applied to the left ear; except for the model group, the right ears of the mice in each administration group are applied with corresponding drugs 20 μL/ear 30 minutes before and 15 minutes after modeling, respectively. 6 h after modeling, the ear swelling is measured with a thickness gauge as an indicator of inflammation; then, the animals are sacrificed, the ears are cut and punched with a 6 mm punch, the ear pieces are weighed, and the swelling degree (weight) is calculated.

atopic dermatitis = conditions: topical 2% tofacitinib, clinical phase II; cited from earlier work

## C[C@@H]1CCN(C(=O)CC#N)C[C@@H]1N(C)c1ncnc2[nH]ccc12 [Tofacitinib, tofacitinib]
[1]
  Right ear (ear thickness): 41.6 ± 3.4 10^−2 mm
  Swelling degree: 12.4 ± 3.2^ΔΔ 10^−2 mm
  Inhibition rate of the swelling: 34.7%
Atopic dermatitis
  itching symptoms in patients: can improve itching symptoms in patients
  therapeutic effect on atopic dermatitis: a certain therapeutic effect on atopic dermatitis

## N#Cc1ccc(Oc2ccc3c(c2)COB3O)cc1 [Crisaborole, crisaborole]
[1]
  Right ear (ear thickness): 43.0 ± 3.7 10^−2 mm
  Swelling degree: 13.3 ± 3.4^Δ 10^−2 mm
  Inhibition rate of the swelling: 30.0%
